From PMC4361473, “A New System for Profiling Drug-Induced Calcium Signal Perturbation in Human Embryonic Stem Cell–Derived Cardiomyocytes” (Journal of Biomolecular Screening, 2015)
Read-outs that look alike come from different tables or passages of the source.

What was measured:
[1] = tested on: Cytiva hSCCMs; assay: SALVO profiling of drug-evoked Ca2+ signal perturbation (fluo-4 confocal imaging)
Description: Cytiva hSCCMs were derived from monolayer differentiation of an H7 hESC cell line that had been expanded under feeder-free conditions and then subjected to a proprietary differentiation protocol (GE Healthcare, Piscataway, NJ, USA).[13] […] Cells were thawed and seeded into 7-mm^2 chambers created by the adherence of silicon gaskets (CultureWell MultiWell 3 mm in diameter, 1-mm-depth inserts [Life Technologies]) on glass-bottomed culture chambers (In Vitro Scientific, Sunnyvale, CA, USA) that had been precoated with Matrigel (BD Biosciences, Franklin Lakes, NJ, USA), Franklin Lakes, NJ, USA diluted 1:30 (v/v) in Knockout DMEM (Life Technologies, Carlsbad, CA, USA). […] Cells were allowed to adhere to the coverslip for 2 h before the dish was filled with RPMI/B27 (2 mL). Medium was exchanged every 48 h.
Cells were incubated with fluo-4 AM (5 µM) (Life Technologies) for 1 h at 37°C before coverslips were flooded with RPMI/B27 (2 mL). […] Cells were maintained at 37 °C throughout experiments. […] The application of caffeine (5 mM final concentration) was used to trigger sarcoplasmic reticulum (SR) Ca^2+ release and thereby estimate the intra-SR Ca^2+ store load.
Taking our lead from Uhlen’s method of using spectral analysis to investigate the organization of Ca^2+ signals,[14] we developed SALVO to decode the spatiotemporal patterning of Ca^2+ oscillations within individual cells and across multicellular populations. SALVO outputs 30 parameters that describe Ca^2+ signal organization,[15] but for the purposes of this study, we focused on five parameters: oscillation rate (rate, Hz) and four other parameters that quantify the amplitude and temporal patterning of Ca^2+ oscillation: (1) amplitude heterogeneity index (AHI) and (2) temporal heterogeneity index (THI), statistical assessments of signal amplitude and temporal variability within single cells, respectively; (3) intertransient noise (ITN), defined as the Ca^2+ signal variability occurring between Ca^2+ oscillations and that extends the use of signal variability (SV) to measure point-by-point differences in very low-amplitude Ca^2+ signals[6],[10],[12]; and (4) synchronization, an index of the temporal coincidence of Ca^2+ oscillation maxima occurring across cells in the population. The calculation of these parameters is described in Supplementary Figure S1. SALVO is implemented using a Python-based computer program.[15] The detection of signal maxima and minima over a 30-s period in data obtained from 6 to 20 cells in each instance was performed using SALVO’s autodetection algorithms (based on spline detect or threshold detection methods) or by manual assignation of the start, peak, and end of each Ca^2+ spike. SALVO outputs were archived and interrogated using a custom-built SQL-based database system (DB Miner, CHG, NCS, SBJ).
Baseline assessments of Ca^2+ signals in fluo-4–loaded cells prior to the addition of drug (control) were established as described above.
After each addition and following a period of equilibration (approximately 90 s), fluo-4–dependent Ca^2+ signals were acquired for 30 s. Using this protocol, the same population of cells was imaged throughout the entire drug addition sequence.
In all experiments, operators were blinded to the identities of the drugs under test throughout all phases of postexperimental data analysis.
Supplementary Table 2. EC20 values for Ca2+ perturbation.
Drug concentrations (nM) that produced a 20% change from control values (no drug) were calculated for each SALVO parameter from regression analysis of […]
The effective therapeutic plasma concentration of free drug (ETPCunbound, nM) was calculated in Supplementary Table 1.
Calculate percentage effect size (E) for each SALVO parameter, normalized to Ew = E x λ control conditions, at each drug concentration Effect size (E,%) λ
Cumulative Ew for drug concentrations of 0.1, 1, 10, 100 and 1000 nM for The relationship between E and λ is given by […]

[2] = parameters: method as in DrugBank (www.drugbank.ca); settings: from drug-protein binding values; ref DrugBank (www.drugbank.ca); cited from earlier work
[3] = categories assigned by Redfern and colleagues; cited from earlier work
[4] = maximal effective therapeutic plasma concentration, cited from earlier work
[5] = tested on: Cytiva hSCCMs; assay: Whole-cell current-clamp recording of spontaneous action potentials (APD90); assay type: cell-based, human; settings: drug at EC20 concentration, 3 min; Fridericia-corrected; blebbistatin-immobilized cells
Experimental: Cells in 35-mm glass-bottomed culture dishes containing a superfusion insert (AutoMate PCP-1; Digitimer Ltd., Welwyn Garden City, UK) were mounted on the stage of an inverted microscope (CKX-41; Olympus, Tokyo, Japan) and were superfused with normal Tyrode (NT) solution (containing [in mM] NaCl, KCl, MgCl2 [1], CaCl2 [2], HEPES [10], glucose; pH 7.4 with NaOH) or NT-containing drugs maintained at 37 °C using a heated jacket.
Cells were whole-cell clamped with 3- to 4-MΩ patches and an intrapipette solution (containing in [mM] KCl, MgCl2 [1.75], CaCl2 [5.37], EGTA [10], HEPES [10], and Na2ATP [4]; pH 7.2 with KOH) in current-clamp (IC) mode using a CV-7B headstage and MultiClamp 700B amplifier controlled by MultiClamp software (Molecular Devices, Sunnyvale, CA). Data were digitized and acquired using a Digidata 1322a card and pClamp software, respectively (Molecular Devices). Action potentials were sampled at a rate of 20 kHz and low pass (Bessel) filtered at 10 kHz.
Spontaneous cell contracture was terminated using blebbistatin (5 µM, 10 min), an agent that inhibits myofilament shortening and thereby negates patch-clamp recording instability but preserves normal Ca^2+ cycling.[20] […] Action potential (AP) recordings from blebbistatin-immobilized cells were taken under control (no-drug) conditions (1 min) and following the switch to drug-containing NT. APD90, corrected for AP cycle length using Fridericia’s method (APD90(corr) = APD90/cycle length^[…]), was calculated from five consecutive APs following a 3-min exposure of the cells to drug.
Figure 4. Investigating the effect of cardiovascular-active drugs on Cytiva APD90. (A) Cells were exposed to drugs at EC20 concentrations for 3 min (Suppl. Table S2). APD90 values were corrected for beat period using Fridericia’s algorithm. Data points represent individual paired experiments (n = 6). Representative control (gray) and drug-treated (black) action potential traces are shown. (B) APD90 plotted as the percentage change relative to the paired control value (no drug). *p < 0.05. **p < 0.01.

[6] = Effective therapeutic plasma concentration (ETPC, ETPCunbound); assay type: in vivo, human
Description: There is also the issue regarding the relevance of drug potency determined in vitro to clinical dosing in humans. Guo and colleagues[25],[27] used an impedance-derived index of arrhythmic beating in hSCCMs to derive a predicted proarrhythmic score (PPS) that took into account the therapeutically relevant total concentration of drug in human plasma (defined as Ceff). More recently, Clements and Thomas[13] used a similar approach to generate a predictive risk score (PRS) based on their measurement of field potential duration (FPD) in Cytiva.
Supplementary Table 1. Calculating the free plasma concentration of […]
described by Redfern et al. (Redfern et al. (2003) Cardiovasc. Res. 58:32-45) was used to calculate the levels of free drug (ETPCunbound). ETPC for nadolol and valdecoxib were from Krukemyer et al. (Pharm. Res. (1990) 9:953-956) and Yuan et al. (Drug Metab. Disp. (2002) 30:1013-1021), respectively. The values for drug-protein binding were obtained from DrugBank (www.drugbank.ca).

[7] = tested on: hSCCM; parameters: method as in PMID 24052561; settings: cited from earlier work
[8] = 20% change from control in amplitude heterogeneity index, regression of Figure 3 data
[9] = 20% change from control in intercellular synchronization, regression of Figure 3 data
[10] = 20% change from control in intertransient noise, regression of Figure 3 data
[11] = 20% change from control in temporal heterogeneity index, regression of Figure 3 data
[12] = drug concentration producing a 20% change from control (no drug) in Ca2+ oscillation rate, regression of Figure 3 data
[13] = five-parameter SALVO output integrated over 0.1-1000 nM, normalized to control
[14] = spontaneously oscillating Cytiva, concentrations up to 30 µM
[15] = ref Redfern et al. (2003) Cardiovasc. Res. 58:32-45
[16] = free plasma concentration calculated from ETPC and free drug %, Supplementary Table 1

Structure (SMILES)	EC20 AHI [1, 8]	EC20 Synch [1, 9]	EC20 ITN [1, 10]	EC20 THI [1, 11]	EC20 Rate [1, 12]	SALVO toxicity score, rank order of the extent of Ca2+ perturbation [1, 13]	Effect on Ca2+ handling (SALVO parameters) [1, 14]	Free drug [2]	TdP risk category [3]	ETPC [4, 15]	Effect on APD90 (action potential duration) [5]	ETPCunbound [6, 16]	other results
COc1cc(N)c(Cl)cc1C(=O)NC1CCN(CCCOc2ccc(F)cc2)CC1OC (centres unmarked) [Cisapride, cisapride]	40 nM	5 nM	> 30000 nM	105 nM	445 nM	astemizole > thioridazine > cisapride > flecainide > valdecoxib > sotalol > nadolol	large effect sizes in multiple parameters	2%	category 2	129 nM	increased APD90	3 nM	PPS rank order ([1]; PPS = ETPCunbound/EC20): thioridazine > cisapride > valdecoxib
Cc1onc(-c2ccccc2)c1-c1ccc(S(N)(=O)=O)cc1 [Valdecoxib, valdecoxib]	–	–	–	–	–	–	–	2%	–	–	no effect	45 nM	EC20 AHI [1]: 685 nM; EC20 ITN [1]: > 30000 nM; EC20 Rate [1]: 9870 nM; EC20 Synch [1]: > 30000 nM; EC20 THI [1]: 12800 nM; Effect on Ca2+ handling (SALVO parameters) [1]: large effect sizes in multiple parameters; PPS rank order [1]: thioridazine > cisapride > valdecoxib; SALVO toxicity score, rank order of the extent of Ca2+ perturbation [1]: astemizole > thioridazine > cisapride > flecainide > valdecoxib > sotalol > nadolol; ETPC ([4]; ref Yuan et al. (Drug Metab. Disp. (2002) 30:1013-1021)): 2257 nM
CS(=O)(=O)c1ccc(C2=C(c3ccccc3)C(=O)OC2)cc1 [rofecoxib]	–	–	–	–	–	–	inconsistent bioactivity	–	–	–	–	–	Hazard identification by impedance measurements [7]: failed to identify the potential hazard
COc1ccc(CCN2CCC(Nc3nc4ccccc4n3Cc3ccc(F)cc3)CC2)cc1 [Astemizole, astemizole]	100 nM	15 nM	320 nM	55 nM	50 nM	astemizole > thioridazine > cisapride > flecainide > valdecoxib > sotalol > nadolol	large effect sizes in multiple parameters	2%	category 2	8 nM	increased APD90	0.2 nM	Predicted proarrhythmic score (PPS) ([1]; PPS = ETPCunbound/EC20): < 1; ETPCunbound ([6]; effective therapeutic plasma concentration of free drug, as listed in Supplementary Table 2): 8 nM
